In brackets after ≈: the same amount, converted by molar mass. Like-named read-outs stand apart in the source and are kept apart here. Starred links: 1 amine or outer side, 2 acyl side, 3 side chain; linkers in the order of their positions; H or OH if unused. Positions of bridges follow the written chain, without caps; N, C: chain ends. Non-standard residues stand in square brackets, D forms with d. Residues, ends and D or L forms follow the SMILES beside them. *: point of attachment. hTyr(3S-OH,4S-OH,3'-OSO3H) = N[C@H](C(=O)O)[C@H](O)[C@@H](O)c1ccc(O)c(OS(=O)(=O)O)c1; pTerphenylCO(4''-OnC5H11) = CCCCCOc1ccc(-c2ccc(-c3ccc(C(=O)*)cc3)cc2)cc1; Orn(4R-OH,5R-OH) = O=C([C@H](C[C@@H](O)[C@@H](O)N[*:3])N[*:1])[*:2]; hTyr(3S-OH,4S-OH) = N[C@H](C(=O)O)[C@H](O)[C@@H](O)c1ccc(O)cc1; Pro(3S-OH,4S-Me) = C[C@H]1CN[C@H](C(=O)O)[C@H]1O; X1 = CCCCCOc1ccc(-c2cc(-c3ccc(C(=O)*)cc3)no2)cc1; Gln(3R-OH) = NC(=O)C[C@@H](O)[C@H](N)C(=O)O; Hyp = O=C(O)[C@@H]1C[C@@H](O)CN1
Key:
[1] = test system: C. auris clinical strains; assay: organism not typed; type: cell-based, Candida auris; conditions: range, 78 strains from patients with COVID-19
C. glabrata isolates = assay: Rapid XTT assay based on EUCAST E.Def 7.3; type: cell-based, Candida glabrata; conditions: […], mean ± SD
Candida auris isolates = assay: microbe, parasite or virus in culture; type: cell-based; conditions: for categorised as resistant on MIC: CDC guidelines; for MIC: Candidozyma auris, IQR given, read-out: median MIC
[2] = test system: Rasamsonia argillacea species complex; assay: Antifungal susceptibility testing; type: cell-based; conditions: sputum isolate of a CF patient
[3] = test system: C. albicans and C. glabrata; assay: FUNGINOS candidemia survey, susceptibility according to CLSI; type: cell-based; conditions: share of isolates
C. glabrata [4] = assay: ARIA surveillance, CLSI M27 broth microdilution; type: cell-based, Candida glabrata; conditions: CLSI M60
Method: (§1) Materials & Methods: Isolates (n = 730) were collected and re-identified by MALDI-TOF or molecular methods. […] Percentage susceptibility (%S) or wild-type (%WT) were calculated according to CLSI breakpoints (CLSI supplement M60) or epidemiological cut-off values (CLSI supplement M59), respectively.

[5] = test system: Phaeoacremonium parasiticum; assay: Antifungal susceptibility testing; type: cell-based
Method: Results: Cultures for bacteria were sterile. Culture on Sabouraud was positive after 5 days of incubation, showing slow growing and initially white colonies. […] Its identification was performed by sequencing the internal transcribed spacer (ITS) region of ribosomal DNA, being the isolate identified as Phaeoacremonium parasiticum (100% homology).

[6] = test system: Parathyridaria percutanea; assay: In vitro antifungal susceptibility; type: cell-based
[7] = test system: invasive C. glabrata strains; assay: YeastOne Sensititre colorimetric broth microdilution; type: cell-based, Candida glabrata; conditions: Nakaseomyces glabratus
Method: Material and Method: Thirty-six clinical isolates of invasive C. glabrata strains were analyzed in this study. Minimum inhibitory concentrations (MICs) were determined using colorimetric broth microdilution (YeastOneSensititre, Trek diagnostics). Genomic DNA was isolated using Qiagen DNA extraction Kit. The FKS1 and FKS2 gene fragment were amplified and PCR products were purified prior to sequencing. Double-strand sequencing of PCR products was performed using Sanger sequencing methodology. Sequences were analyzed with MEGA-6 software to identify specific SNP combination against wild-type sequences of C. glabrata.

C. auris = assay: EUCAST EDef 7.3.1 MIC and checkerboard microdilution; type: cell-based, Candida auris
Method: Methods: We studied 22 C. auris isolates obtained from different clinical samples from the Hospital La Fe, Valencia, Spain (eight from blood culture, seven from oropharynx and seven from urine cultures). Candida parapsilosis ATCC 22019 and Candida krusei ATCC 6258 were used as quality controls. The minimum inhibitory concentration (MIC) was determined according to the European Committee on Antibiotic Susceptibility Testing (EUCAST) EDef 7.3.1 document. The interaction between citral and the rest of antifungal drugs was assessed by a checkerboard microdilution method. […] The in vitro interaction of the drug combinations was interpreted in terms of the fractional inhibitory concentration index (FICI) as follows: FICI < 1, synergistic; FICI equal to 1, additive; and FICI > 1, indifferent or antagonistic.

C. guilliermondii = assay: EUCAST E. Def 7.3.2 microdilution; type: cell-based, Candida guilliermondii; conditions: n = 62; for MIC50 / MIC90: Meyerozyma guilliermondii
C. fermentati = assay: EUCAST E. Def 7.3.2 microdilution; type: cell-based, Candida fermentati; conditions: n = 2
Aspergillus tubingensis = assay: EUCAST susceptibility; type: cell-based; conditions: read-out: MIC
Method: The fungus was identified as Aspergillus niger and liposomal amphotericine B was switched to anidulafungin pending susceptibility testing as the patient had pre-existing […] (eGFR CKD-EPI 40 mL/min/1.73 m²). […] Despite increasing the anidulafungin dosage to 200 mg daily and adequate voriconazol levels, serum galactomannan levels remained elevated (index 2.1 at discharge). […] Since no extracardiac sources were found and the patient did well clinically, they were discharched. Anidulafungin was switched to caspofungin to facilitate ongoing IV treatment in the outpatient setting. […] The patient died shortly after. Obduction was not performed.

C. krusei [8] = assay: ARIA surveillance, CLSI M27 broth microdilution; type: cell-based, Candida krusei
Method: as §1

Candida albicans (CA) = assay: Post-antifungal effect (PAFE); type: cell-based; conditions: CA clinical isolate; all concentrations (1×, 4×, 16× bMIC), 1 h exposure
Method: (§2) Materials &Methods: Six Candida spp. […] For PAFE determinations, antifungal concentrations of 1×, 4×, and 16× bMiC were used. A starting inoculum of 1–[…] CFU/mLwas added to RPMl with the antifungal agent. Post 1 h exposure, cells were washed 3 times and resuspended in 10 mL of pre-warmed RPMl. Colony counts were performed at to, 1 h before and after final washt t2, t4, t8, t12, t24 and t48 h. PAFE was calculated as the difference in time required for isolates to rrow1-logio following the final cell wash compared to the growth control.

C. glabrata (CGLA) = assay: Post-antifungal effect (PAFE); type: cell-based, Candida glabrata
Method: as §2

C. parapsilosis (CPRP) = assay: Post-antifungal effect (PAFE); type: cell-based, Candida parapsilosis
Method: as §2

C. albicans = type: cell-based, Candida albicans
C. parapsilosis = type: cell-based, Candida parapsilosis
C. glabrata [9] = type: cell-based, Candida glabrata
C. tropicalis = type: cell-based, Candida tropicalis
C. krusei [10] = type: cell-based, Candida krusei
Other species of Candida = type: cell-based, Candida spp.
[11] = 36 clinical isolates, read-out: median (Min–Max) MIC

CCCCCOc1ccc(-c2ccc(-c3ccc(C(=O)N[C@H]4C[C@@H](O)[C@@H](O)NC(=O)[C@@H]5[C@@H](O)[C@@H](C)CN5C(=O)[C@H]([C@@H](C)O)NC(=O)[C@H]([C@H](O)[C@@H](O)c5ccc(O)cc5)NC(=O)[C@@H]5C[C@@H](O)CN5C(=O)[C@H]([C@@H](C)O)NC4=O)cc3)cc2)cc1 [anidulafungin] ({pTerphenylCO(4''-OnC5H11)}-[Orn(4R-OH,5R-OH)]T[Hyp][hTyr(3S-OH,4S-OH)]T[Pro(3S-OH,4S-Me)]; lactam 1-C)
MIC [1]: 0.015 to 8 µg/mL (≈ 0.0132 to 7.02 µM)
XTT-absorbance in drug-treated wells (C. glabrata isolates; drug-free 0.37 ± 0.04): 0.11 ± 0.03
XTT-absorbance in drug-treated wells (C. glabrata isolates; drug-free 0.39 ± 0.05): 0.25 ± 0.06
categorised as resistant on MIC (Candida auris isolates): none
MIC (Candida auris isolates): 0.25 µg/mL (≈ 0.219 µM)
minimal inhibitory concentrations (MIC) [2]: low MIC
non-susceptibility [3]: 2%
susceptibility (C. glabrata [4]; Italy): 15.8%
susceptibility (C. glabrata [4]; Panama): 91.7%
minimal inhibitory concentrations (MIC), in words [5]: higher
in vitro susceptibility category [6]: resistance
MIC [7, 11]: 0.06 µg/mL
MIC ([7]; isolate with FKS2 I661T): 0.06 µg/mL
MIC of anidulafungin in combination with citral (C. auris): 0.016 µg/mL
MIC (C. auris; Candidozyma auris, 22 clinical isolates): 0.125 µg/mL
MIC50 (C. guilliermondii): 0.25 µg/mL (≈ 0.219 µM)
MIC90 (C. guilliermondii): 0.5 µg/mL (≈ 0.438 µM)
GM (C. guilliermondii): 0.304 µg/mL
MIC Range (C. guilliermondii): 0.008 to 1 µg/mL
GM (C. fermentati): 0.25 µg/mL
MIC Range (C. fermentati): 0.25 µg/mL (≈ 0.219 µM)
MIC (Aspergillus tubingensis): 0.03 µg/mL (≈ 0.0263 µM)

CCCCCOc1ccc(-c2cc(-c3ccc(C(=O)N[C@H]4C[C@@H](O)[C@@H](O)NC(=O)[C@@H]5[C@@H](O)[C@@H](C)CN5C(=O)[C@H]([C@H](O)CC(N)=O)NC(=O)[C@H]([C@H](O)[C@@H](O)c5ccc(O)c(OS(=O)(=O)O)c5)NC(=O)[C@@H]5C[C@@H](O)CN5C(=O)[C@H]([C@@H](C)O)NC4=O)cc3)no2)cc1 [micafungin] (X1-[Orn(4R-OH,5R-OH)]T[Hyp][hTyr(3S-OH,4S-OH,3'-OSO3H)][Gln(3R-OH)][Pro(3S-OH,4S-Me)]; lactam 1-C)
MIC [1]: 0.06 to 1 µg/mL (≈ 0.0472 to 0.787 µM)
categorised as resistant on MIC (Candida auris isolates): 1.4%
MIC (Candida auris isolates): 0.12 µg/mL (≈ 0.0945 µM)
non-susceptibility [3]: 2%
susceptibility (C. krusei [8]; Argentina, Australia, Italy and Taiwan): 100%
susceptibility (C. krusei [8]; USA): 73.3%
MIC [7, 11]: 0.015 µg/mL
MIC ([7]; isolate with FKS2 I661T): 0.015 µg/mL
PAFE (Candida albicans (CA)): > 14.9 h
PAFE (C. glabrata (CGLA); CGLA #3 isolate, 1× bMIC): 20.4 h
PAFE (C. glabrata (CGLA); both CGLA strains, all concentrations): > 40 h
PAFE (C. parapsilosis (CPRP); CPRP ATCC 22019, 1× and 4× bMIC): no micafungin PAFE was observed
PAFE (C. parapsilosis (CPRP); CPRP ATCC 22019, 16× bMIC): 1.8 h
PAFE (C. parapsilosis (CPRP); CPRP clinical isolate, 1× bMIC): 1.6 h
PAFE (C. parapsilosis (CPRP); CPRP clinical isolate, 4× bMIC): 7.4 h
PAFE (C. parapsilosis (CPRP); CPRP clinical isolate, 16× bMIC): 31.3 h
I (intermediate) isolates, n (%) (C. albicans): 1 (0.7%)
R (resistant) isolates, n (%) (C. albicans): 1 (0.7%)
S (sensitive) isolates, n (%) (C. albicans): 136 (98.6%)
I (intermediate) isolates, n (%) (C. parapsilosis): 0 (0%)
R (resistant) isolates, n (%) (C. parapsilosis): 0 (0%)
S (sensitive) isolates, n (%) (C. parapsilosis): 132 (100%)
I (intermediate) isolates, n (%) (C. glabrata [9]): 0 (0%)
R (resistant) isolates, n (%) (C. glabrata [9]): 0 (0%)
S (sensitive) isolates, n (%) (C. glabrata [9]): 55 (100%)
I (intermediate) isolates, n (%) (C. tropicalis): 0 (0%)
R (resistant) isolates, n (%) (C. tropicalis): 0 (0%)
S (sensitive) isolates, n (%) (C. tropicalis): 44 (100%)
S (sensitive) isolates, n (%) (C. krusei [10]): 3 (100%)
I (intermediate) isolates, n (%) (Other species of Candida): 0 (0%)
R (resistant) isolates, n (%) (Other species of Candida): 0 (0%)
S (sensitive) isolates, n (%) (Other species of Candida): 18 (100%)
MIC50 (C. guilliermondii): 0.25 µg/mL (≈ 0.197 µM)
MIC90 (C. guilliermondii): 0.5 µg/mL (≈ 0.394 µM)
GM (C. guilliermondii): 0.228 µg/mL
MIC Range (C. guilliermondii): 0.008 to 0.5 µg/mL
GM (C. fermentati): 0.125 µg/mL
MIC Range (C. fermentati): 0.125 µg/mL (≈ 0.0984 µM)
